# Source: patent publication US8895599B2, “Lipoprotein lipase-activating compositions comprising benzene derivates” (Otsuka Pharmaceutical Factory, Inc., priority 2008, dated 2014)
row,SMILES,melting point
1,COc1cc(-c2cn3cccc(OC)c3n2)ccc1OCc1ccc(Cl)cc1 [Example 89],132 to 134 °C
2,COc1cc(-c2cn3cc(C)cc(Br)c3n2)ccc1OCc1ccc(Cl)cc1 [Example 64],136 to 138 °C
3,COc1cc(-c2cn3ccccc3n2)ccc1OCc1ccc(F)cc1F [Example 93],137 to 138 °C
4,COc1cc(-c2nc3ccccn3c2Cl)ccc1Oc1ccccc1 [Example 115],108 to 109 °C
5,CCCOc1cc(-c2cn3ccccc3n2)ccc1OCc1ccccc1 [Example 61],126 to 127 °C
6,COc1cc(-c2cn3cc(C)ccc3n2)ccc1OCc1ccc(Br)cc1F [Example 83],147 to 148 °C
7,COc1cc(-c2nc3sccn3c2C)ccc1OCc1ccccc1.Cl,228 to 230 °C
8,COC(=O)c1ccc(COc2ccc(-c3cn4ccccc4n3)cc2OC)cc1 [Example 50],125 to 126 °C
9,COc1cc(-c2nc3ccccc3[nH]2)ccc1OCc1ccc(Cl)cc1 [Example 77],204 to 206 °C
10,COc1cc(-c2cn3ccccc3n2)ccc1OCc1ccc(C(F)(F)F)cc1 [Example 7],172 to 173 °C
11,COc1cc(-c2cn3ccccc3n2)ccc1OCc1cc(F)ccc1F [Example 94],115 to 117 °C
12,COc1cc(-c2cn3cc(C)cc(Br)c3n2)ccc1OCc1ccc(C#N)cc1 [Example 65],175 to 176 °C
13,COc1cc(-c2cn3ccccc3n2)ccc1OCc1ccc(Cl)c(Cl)c1 [Example 22],138 to 139 °C
14,Oc1cc(-c2cn3ccccc3n2)ccc1OCc1ccc(Cl)cc1 [Example 67],206 to 208 °C
15,COc1cc(-c2cn3cc(C)sc3n2)ccc1OCc1ccc(Cl)cc1 [Example 43],156 to 158 °C
16,COc1cc(-c2cn3cc(C)ccc3n2)ccc1OCc1ccccc1 [Example 15],135 to 136 °C
17,COc1cc(-c2cnc3ccccn23)ccc1OCc1ccc(C(F)(F)F)cc1 [Example 122],133 to 135 °C
18,COc1cc(-c2cn3ccc(C)cc3n2)ccc1OCc1ccccc1 [Example 16],171 to 173 °C
19,COc1cc(-c2cn3ccccc3n2)ccc1OCc1cccc(Cl)c1 [Example 21],114 to 115 °C
20,"COc1cc(-c2nc3ccccc3[nH]2)ccc1OCc1ccccc1 [Example 76, 2-(4-benzyloxy-3-methoxyphenyl)benzimidazole]",219 to 221 °C
21,COc1cc(-c2cn3ccccc3n2)ccc1OCc1ccc(C(=O)O)cc1 [Example 51],245 to 247 °C

row,SMILES,melting point
1,COc1cc(-c2cccc3nccn23)ccc1O [Example 137],177 to 178 °C
2,COc1cc(-c2cn3ccccc3n2)ccc1OCC1CC1 [Example 71],121 to 123 °C
3,COC(=O)c1cc(-c2cn3ccccc3n2)ccc1OCc1ccccc1 [Example 47],179 to 181 °C
4,COc1cc(-c2cn3cccc(C)c3n2)ccc1OCc1ccc(Br)cc1F [Example 82],122 to 124 °C
5,COc1cc(-c2cn3cc(C)ccc3n2)ccc1OCc1ccc(Cl)cc1 [Example 32],140 to 142 °C
6,COc1cc(-c2cn3cccc(OCc4ccccc4)c3n2)ccc1OCc1ccccc1 [Example 55],140 to 141 °C
7,COc1ccc(COc2ccc(-c3cn4ccccc4n3)cc2)cc1 [Example 36],215 to 218 °C
8,c1ccc(Oc2ccc(-c3cn4ccccc4n3)cc2)cc1 [Example 72],164 to 165 °C
9,COc1cc(-c2cccc3nccn23)ccc1OCc1ccc(C#N)cc1 [Example 120],155 to 157 °C
10,COC(=O)c1ccc2nc(-c3ccc(OCc4ccc(Cl)cc4)c(OC)c3)cn2c1 [Example 46],182 to 183 °C
11,COc1cc(-c2cn3cc(Cl)ccc3n2)ccc1OCc1ccccc1 [Example 18],177 to 179 °C
12,COc1cc(-c2cn3ccsc3n2)ccc1OCc1ccc(C#N)cc1 [Example 48],179 to 181 °C
13,COc1ccc(COc2ccc(-c3cn4ccccc4n3)cc2OC)cc1 [Example 35],165 to 167 °C
14,COc1cc(-c2cn3cc(C(=O)O)ccc3n2)ccc1OCc1ccc(Cl)cc1 [Example 45],251 to 253 °C
15,COc1cc(-c2cn3ccccc3n2)ccc1OCc1cc(F)ccc1C(F)(F)F [Example 8],125 to 126 °C
16,COc1cc(-c2nc3ccccn3c2C)ccc1OCc1ccccc1.Cl,241 to 243 °C
17,COc1cc(-c2cn3ccsc3n2)ccc1OCc1ccc([N+](=O)[O-])cc1 [Example 49],189 to 191 °C
18,COc1cc(-c2cn3cccc(C)c3n2)ccc1OCc1ccccc1 [Example 34],99 to 100 °C
19,"COc1cc(-c2cn3cccnc3n2)ccc1OCc1ccccc1 [Example 28, 2-(4-benzyloxy-3-methoxyphenyl)imidazo[1,2-a]pyrimidine]",168 to 169 °C
20,COc1cc(-c2cn3cccc(OCc4ccccc4)c3n2)ccc1OCc1ccc(C#N)cc1 [Example 86],169 to 170 °C
21,COc1cc(-c2cn3cc(C(=O)O)ccc3n2)ccc1OCc1ccc(C#N)cc1 [Example 44],242 to 243 °C

row,SMILES,melting point
1,COc1cc(-c2cn3cccc(O)c3n2)ccc1OCc1ccccc1 [Example 54],187 to 189 °C
2,"COc1cc(-c2cnc3ccccn23)ccc1OCc1ccccc1 [Example 12, 3-(4-benzyloxy-3-methoxyphenyl)imidazo[1,2-a]pyridine]",129 to 131 °C
3,c1ccc(COc2ccc(-c3cn4ccccc4n3)cc2OCc2ccccc2)cc1 [Example 62],122 to 124 °C
4,Cc1cc(-c2cn3ccccc3n2)ccc1OCc1ccccc1 [Example 39],123 to 124 °C
5,"COc1cc(-c2nc3ccccc3s2)ccc1OCc1ccccc1 [Example 78, 2-(4-benzyloxy-3-methoxyphenyl)benzothiazole]",108 to 109 °C
6,COc1cc(-c2cn3cc(Cl)cc(Cl)c3n2)ccc1OCc1ccc(Cl)cc1 [Example 80],162 to 163 °C
7,COc1cc(-c2cn3cc(Br)c(C)c(C)c3n2)ccc1OCc1ccc(Cl)cc1 [Example 70],166 to 167 °C
8,Clc1ccc(COc2ccc(-c3cn4ccccc4n3)cc2)cc1 [Example 37],229 to 231 °C
9,COc1cc(-c2cn3c(C)cccc3n2)ccc1OCc1ccccc1 [Example 33],130 to 132 °C
10,COc1cc(-c2cn3cc(C(F)(F)F)cc(Cl)c3n2)ccc1OCc1ccccc1 [Example 53],155 to 156 °C
11,COc1cc(-c2cn3cc(Cl)cc(Cl)c3n2)ccc1OCc1ccc(C#N)cc1 [Example 81],187 to 189 °C
12,COc1cc(-c2cn3ccsc3n2)ccc1OCc1ccc(Br)cc1F [Example 84],109 to 111 °C
13,COc1cc(-c2cn3ccccc3n2)ccc1OCc1ccc(Cl)cc1F [Example 91],119 to 120 °C
14,COc1cc(-c2cn3cc(C(F)(F)F)ccc3n2)ccc1OCc1ccccc1 [Example 17],172 to 173 °C
15,COc1cc(-c2cnc3ccccn23)ccc1OCc1ccc(F)cc1 [Example 133],118 to 119 °C
16,COc1cc(-c2cn3cc(Br)c(C)c(C)c3n2)ccc1OCc1ccc(C#N)cc1 [Example 101],180 to 181 °C
17,COc1cc(-c2nc3ccccn3c2Cl)ccc1OCc1cccc(F)c1 [Example 20],104 to 105 °C
18,COc1cc(-c2cn3ccsc3n2)ccc1OCc1ccc(Br)cc1 [Example 42],134 to 136 °C
19,COc1cc(-c2cn3cc(C)cc(Br)c3n2)ccc1OCc1ccccc1 [Example 63],136 to 137 °C
20,COc1cc(-c2cn3cccc(C)c3n2)ccc1OCc1ccc(Cl)cc1 [Example 73],132 to 133 °C
21,COc1cc(-c2cccc3nccn23)ccc1OCc1ccccc1 [Example 116],164 to 166 °C

row,SMILES,melting point
1,COc1cc(-c2cn3cc(Br)ccc3n2)ccc1OCc1ccc(Cl)cc1 [Example 96],178 to 180 °C
2,COc1cc(-c2cn3cccc(OCc4ccccc4)c3n2)ccc1OCc1ccc(Br)cc1F [Example 87],108 to 109 °C
3,COc1cc(-c2c[nH]c(-c3ccccc3)n2)ccc1OCc1ccccc1 [Example 79],190 to 192 °C
4,O=C(O)c1cc(-c2cn3ccccc3n2)ccc1OCc1ccccc1 [Example 40],239 to 240 °C
5,COc1cc(-c2cn3cccnc3n2)ccc1OCc1ccc(Cl)cc1 [Example 29],216 to 218 °C
6,COc1cc(-c2cn3cc(C)ccc3n2)ccc1OCc1ccc(C#N)cc1 [Example 57],168 to 169 °C
7,Oc1cc(-c2cn3ccccc3n2)ccc1OCc1ccccc1 [Example 59],169 to 171 °C
8,c1ccc(COc2ccc(-c3cn4ccccc4n3)cc2)cc1 [Example 13],171 to 173 °C
9,COc1cc(-c2cn3ccccc3n2)ccc1OCc1ccc(C)cc1 [Example 9],155 to 157 °C
10,COc1cc(-c2nc3ccccn3c2Cl)ccc1OCc1ccccc1 [Example 2],103 to 104 °C
11,COc1cc(-c2cn3cc(Br)ccc3n2)ccc1OCc1ccc(C#N)cc1 [Example 97],165 to 166 °C
12,COc1cc(-c2cn3cc(Br)cc(C)c3n2)ccc1OCc1ccc(Cl)cc1 [Example 69],155 to 156 °C
13,COc1cc(-c2cn3cc(Cl)cc(Cl)c3n2)ccc1OCc1ccccc1 [Example 52],163 to 165 °C
14,COc1cc(-c2cnc3ccccn23)ccc1OCc1ccc(C#N)cc1 [Example 108],148 to 149 °C
15,COc1cc(-c2cn3ccccc3n2)ccc1O.Cl,276 to 278 °C
16,COc1cc(-c2cn3ccccc3n2)ccc1OCc1ccc(F)cc1 [Example 6],144 to 146 °C
17,COc1cc(-c2cn3cc(Br)cc(C)c3n2)ccc1OCc1ccc(C#N)cc1 [Example 99],177 to 178 °C
18,COc1cc(-c2cn3cccc(OC)c3n2)ccc1OCc1ccccc1 [Example 88],189 to 191 °C
19,COc1cc(-c2cn3cccc(O)c3n2)ccc1OCc1ccc(Cl)cc1 [Example 90],220 to 222 °C
20,COc1cc(-c2nc3ccccn3c2Br)ccc1OCc1ccccc1 [Example 3],115 to 117 °C
